The source of these data is patent publication US8377943B2, “2,4-diaminopyrimidine derivates as PTK2-inhibitors for the treatment of abnormal cell growth” (Boehringer Ingelheim International GmbH, priority 2008, dated 2013).

One assay concerns the target T1, PTK2 (Homo sapiens, UniProt Q05397).
T1 construct: purchased Invitrogen PV3832
Kind of assay: PTK2 Enzyme Test (DELFIA assay, poly-Glu-Tyr substrate). It is filed as biochemical. The note with it: active PTK2 enzyme, 50 μM ATP in ATP Mix, 1 h pre-incubation. In a few lines:
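Active PTK2 (0.01 μg/well) pre-incubated 1 h at RT with compound, then reacted 1 h with 50 μM ATP (in ATP mix) and poly(Glu,Tyr) 4:1 substrate, 2% DMSO final, pH 7.5. Biotinylated product captured on streptavidin, detected by Eu-PY20 time-resolved fluorescence; IC50 by sigmoidal fit, variable Hill slope.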

Assay [1] concerns the target T2, PTK2-phosphorylation at tyrosine 397 (pY397) (Homo sapiens, UniProt Q05397).
T2 construct: endogenous in cells; host or cells: PC-3 (ATCC CRL-1435)
Nature of the assay: Phospho-PTK2 (pY397) Assay in PC-3 cells. The note with it: PC-3 prostate carcinoma cells, 2 h incubation; read-out: PC3pPTK2 Y397 EC50. The assay is classed as cell-based. Put shortly: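 PC-3 cells (2×10^4/well, F12K + 10% FCS) exposed to compound (about 0.8 nM–50 μM, 1% DMSO final) for 2 h at 37 °C. Then formaldehyde-fixed and immunostained with anti-pY397 PTK2 (total PTK2 control) and an HRP secondary. EC50 from sigmoidal fit with variable Hill slope.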

T1 sequence (Q05397 whole entry): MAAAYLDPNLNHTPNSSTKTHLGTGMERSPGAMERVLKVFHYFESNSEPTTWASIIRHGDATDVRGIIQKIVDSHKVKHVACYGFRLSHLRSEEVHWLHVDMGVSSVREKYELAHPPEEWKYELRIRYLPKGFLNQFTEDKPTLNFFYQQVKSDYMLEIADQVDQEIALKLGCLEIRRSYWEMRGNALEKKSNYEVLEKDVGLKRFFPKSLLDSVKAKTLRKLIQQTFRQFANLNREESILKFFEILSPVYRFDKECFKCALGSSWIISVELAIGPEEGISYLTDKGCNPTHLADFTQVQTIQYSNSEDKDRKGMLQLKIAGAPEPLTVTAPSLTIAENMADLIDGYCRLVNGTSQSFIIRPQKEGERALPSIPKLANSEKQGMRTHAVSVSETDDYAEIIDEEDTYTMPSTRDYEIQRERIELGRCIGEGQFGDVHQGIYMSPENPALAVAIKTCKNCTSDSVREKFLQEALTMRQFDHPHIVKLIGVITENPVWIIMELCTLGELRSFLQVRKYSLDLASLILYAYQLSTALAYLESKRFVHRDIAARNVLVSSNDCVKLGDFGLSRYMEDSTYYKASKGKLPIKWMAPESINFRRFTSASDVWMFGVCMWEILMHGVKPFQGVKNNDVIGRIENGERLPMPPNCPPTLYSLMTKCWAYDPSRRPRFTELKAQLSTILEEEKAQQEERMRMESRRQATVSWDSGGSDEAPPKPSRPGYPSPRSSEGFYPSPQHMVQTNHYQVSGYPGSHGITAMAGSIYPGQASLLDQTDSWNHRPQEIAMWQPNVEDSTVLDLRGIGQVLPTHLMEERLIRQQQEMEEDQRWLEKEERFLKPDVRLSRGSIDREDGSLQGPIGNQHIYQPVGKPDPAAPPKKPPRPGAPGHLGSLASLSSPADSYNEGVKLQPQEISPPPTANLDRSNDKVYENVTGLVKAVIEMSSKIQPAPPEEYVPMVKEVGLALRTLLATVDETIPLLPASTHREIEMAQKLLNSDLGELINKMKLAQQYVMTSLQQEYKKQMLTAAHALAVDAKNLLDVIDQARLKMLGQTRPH
T2 sequence (Q05397 whole entry): as above

A word on the IC50: it is the concentration needed to halve the response being measured. The EC50 is the concentration giving half of the maximal effect. `COc1cc(C(=O)NC2CCN(C)CC2)c(Cl)cc1Nc1ncc(C(F)(F)F)c(NCc2ccc(C)cc2N(C)S(C)(=O)=O)n1` [Example 78] registered an IC50 at PTK2 of 4 nM. Also, the EC50 in assay [1] was 0.93 nM.
The like results for `COc1cc(N2CCN(C)CC2)ccc1Nc1ncc(C(F)(F)F)c(NCc2ccc(C)cc2N(C)S(C)(=O)=O)n1` [Example 79] were, in that order, 2 nM and 1 nM.
